Several values for one entry are separate records, joined by “and”; a condition that tells them apart may be missing. Identical values can stand only once. Toxic doses and inconclusive results are not listed. Rule for the calls: active = survival T/C of 150% or more; inactive = T/C below 125% in these data.
System: P388 leukemia ip, CD2F1 mice, survival T/C
Experiment: NCI In Vivo Anticancer Drug Screen. Data for tumor model P388 Leukemia (intraperitoneal) in CD2F1 (CDF1) mice
Settings: endpoint: median survival time, higher = longer survival
In short: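 Mice carrying the transplanted tumor received test compound or vehicle. Survival was recorded in each group, and the value is the treated-group measurement divided by that of the vehicle-treated control group.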

[1] = dose: 100.0 mg/kg/injection, schedule: Q01DX001 (ip), vehicle: Klucel (hydroxypropylcellulose) (HPC)
[2] = dose: 200.0 mg/kg/injection, schedule: Q01DX001 (ip), vehicle: Klucel (hydroxypropylcellulose) (HPC)
[3] = dose: 50.0 mg/kg/injection, schedule: Q01DX009 (ip), vehicle: saline with Tween-80
[4] = dose: 200.0 mg/kg/injection, schedule: Q01DX009 (ip), vehicle: saline with Tween-80
[5] = dose: 50.0 mg/kg/injection, schedule: Q01DX009 (ip), vehicle: saline
[6] = dose: 100.0 mg/kg/injection, schedule: Q01DX009 (ip), vehicle: saline with Tween-80
[7] = dose: 60.0 mg/kg/injection, schedule: Q01DX005 (ip), vehicle: Klucel (hydroxypropylcellulose) (HPC)
[8] = dose: 120.0 mg/kg/injection, schedule: Q01DX005 (ip), vehicle: Klucel (hydroxypropylcellulose) (HPC)
[9] = dose: 100.0 mg/kg/injection, schedule: Q01DX001 (ip), vehicle: saline with Tween-80

Measured: T/C

O=C(NCCNC(=S)Nc1ccccc1)C(=O)NCCNC(=S)Nc1ccccc1
inactive: dose: 50.0 mg/kg/injection, schedule: Q01DX001 (ip), vehicle: Klucel (hydroxypropylcellulose) (HPC) 91 % of control | [1] 91 % of control | [2] 91 % of control

[N-]=[N+]=NC1=CC(=O)C(c2ccccc2)=CC1=O
inactive: dose: 25.0 mg/kg/injection, schedule: Q01DX009 (ip), vehicle: saline with Tween-80 100 % of control | [3] 95 % of control | [4] 103 % of control

CN(C)c1ccc(C(=O)C2(O)CCCC(C)(C)C2)cc1 (centres undefined)
inactive: [1] 103 % of control | [2] 101 % of control | dose: 400.0 mg/kg/injection, schedule: Q01DX001 (ip), vehicle: Klucel (hydroxypropylcellulose) (HPC) 101 % of control

CCOc1ccc(Nc2nc(C(Cl)(Cl)Cl)cc(C(Cl)(Cl)Cl)n2)cc1CN(CC)CC
inactive: dose: 6.25 mg/kg/injection, schedule: Q01DX009 (ip), vehicle: saline sonified 100 % of control | dose: 12.5 mg/kg/injection, schedule: Q01DX009 (ip), vehicle: saline sonified 100 % of control | dose: 25.0 mg/kg/injection, schedule: Q01DX009 (ip), vehicle: saline sonified 100 % of control

O=C(O)CS(=O)(=O)CC(=O)O
inactive: [5] 95 % of control

CCOC(=O)CCCCCO[Si](c1ccccc1)(c1ccccc1)C(C)(C)C
inactive: dose: 60.0 mg/kg/injection, schedule: Q01DX005 (ip), vehicle: saline with Tween-80 110 % of control | dose: 120.0 mg/kg/injection, schedule: Q01DX005 (ip), vehicle: saline with Tween-80 99 % of control | dose: 240.0 mg/kg/injection, schedule: Q01DX005 (ip), vehicle: saline with Tween-80 88 % of control

Clc1ccc2c(c1)Oc1ccccc1C=N2
inactive: [3] 107 % of control | [6] 98 % of control | [4] 96 % of control

Cc1ccc2nc(N/N=C/c3cccc(C)n3)cc(C)c2c1
inactive: dose: 12.5 mg/kg/injection, schedule: Q01DX005 (ip), vehicle: saline with Tween-80 100 % of control | dose: 25.0 mg/kg/injection, schedule: Q01DX005 (ip), vehicle: saline with Tween-80 90 % of control | dose: 50.0 mg/kg/injection, schedule: Q01DX005 (ip), vehicle: saline with Tween-80 100 % of control and 93 % of control | dose: 100.0 mg/kg/injection, schedule: Q01DX005 (ip), vehicle: saline with Tween-80 100 % of control

COc1cccc(OC)c1C(c1c(OC)cccc1OC)c1c(OC)cccc1OC
inactive: dose: 22.0 mg/kg/injection, schedule: Q04DX003 (ip), vehicle: saline with Tween-80 109 % of control | dose: 33.0 mg/kg/injection, schedule: Q04DX003 (ip), vehicle: saline with Tween-80 113 % of control | dose: 75.0 mg/kg/injection, schedule: Q04DX003 (ip), vehicle: saline with Tween-80 109 % of control

CC1(C)NCCc2c1[nH]c1ccccc21
inactive: dose: 50.0 mg/kg/injection, schedule: Q04DX002 (ip), vehicle: suspension in saline 100 % of control | dose: 100.0 mg/kg/injection, schedule: Q04DX002 (ip), vehicle: suspension in saline 100 % of control | dose: 200.0 mg/kg/injection, schedule: Q04DX002 (ip), vehicle: suspension in saline 100 % of control

O=C1CSc2cc(F)ccc2N1
inactive: [5] 91 % of control | dose: 100.0 mg/kg/injection, schedule: Q01DX009 (ip), vehicle: saline 91 % of control | dose: 200.0 mg/kg/injection, schedule: Q01DX009 (ip), vehicle: saline 97 % of control

C=C1C(=O)OC2C1C(OC(=O)/C(C)=C/CO)C/C(C)=C/CCC1(CO)OC21 (centres undefined)
inactive: dose: 0.5 mg/kg/injection, schedule: Q01DX009 (ip), vehicle: Klucel (hydroxypropylcellulose) (HPC) 100 % of control | dose: 1.0 mg/kg/injection, schedule: Q01DX009 (ip), vehicle: Klucel (hydroxypropylcellulose) (HPC) 91 % of control | dose: 2.0 mg/kg/injection, schedule: Q01DX009 (ip), vehicle: Klucel (hydroxypropylcellulose) (HPC) 100 % of control | dose: 4.0 mg/kg/injection, schedule: Q01DX009 (ip), vehicle: Klucel (hydroxypropylcellulose) (HPC) 103 % of control and 113 % of control | dose: 8.0 mg/kg/injection, schedule: Q01DX009 (ip), vehicle: Klucel (hydroxypropylcellulose) (HPC) 105 % of control | dose: 16.0 mg/kg/injection, schedule: Q01DX009 (ip), vehicle: Klucel (hydroxypropylcellulose) (HPC) 118 % of control

N#CCCN(N)S(=O)(=O)c1ccccc1
inactive: dose: 50.0 mg/kg/injection, schedule: Q01DX005 (ip), vehicle: Klucel (hydroxypropylcellulose) (HPC) 99 % of control | dose: 100.0 mg/kg/injection, schedule: Q01DX005 (ip), vehicle: Klucel (hydroxypropylcellulose) (HPC) 99 % of control | dose: 200.0 mg/kg/injection, schedule: Q01DX005 (ip), vehicle: Klucel (hydroxypropylcellulose) (HPC) 98 % of control

C1COCCOCCOCCOCCO1.[Cl][Sn]([Cl])([Cl])[Cl]
inactive: [7] 100 % of control | [8] 99 % of control

CCCCCCC(=O)CC(SCCN)c1ccccc1Cl (centres undefined)
inactive: dose: 3.75 mg/kg/injection, schedule: Q01DX005 (ip), vehicle: saline 100 % of control | dose: 7.5 mg/kg/injection, schedule: Q01DX005 (ip), vehicle: saline 96 % of control | dose: 15.0 mg/kg/injection, schedule: Q01DX005 (ip), vehicle: saline 97 % of control | dose: 30.0 mg/kg/injection, schedule: Q01DX005 (ip), vehicle: saline 99 % of control

CCN(Cc1c(C)[nH]c2cc(N(C)C)ccc2c1=O)Cc1c(C)[nH]c2cc(N(C)C)ccc2c1=O
inactive: [7] 90 % of control | [8] 92 % of control | dose: 240.0 mg/kg/injection, schedule: Q01DX005 (ip), vehicle: Klucel (hydroxypropylcellulose) (HPC) 91 % of control

COc1cc(CC2c3cc(OC)c(OC)cc3CC[N+]2(C)C)c(Oc2cc(CC3c4cc(OC)c(OC)cc4CC[N+]3(C)C)ccc2OC)cc1OC (centres undefined)
inactive: dose: 1.56 mg/kg/injection, schedule: Q04DX003 (ip), vehicle: water 109 % of control | dose: 3.13 mg/kg/injection, schedule: Q04DX003 (ip), vehicle: water 103 % of control

Cc1ccc(S(=O)(=O)NC(CN)C(=O)O)cc1 (centres undefined)
inactive: dose: 25.0 mg/kg/injection, schedule: Q01DX009 (ip), vehicle: other 104 % of control | dose: 50.0 mg/kg/injection, schedule: Q01DX009 (ip), vehicle: other 101 % of control | dose: 100.0 mg/kg/injection, schedule: Q01DX009 (ip), vehicle: other 101 % of control | dose: 200.0 mg/kg/injection, schedule: Q01DX009 (ip), vehicle: other 107 % of control | dose: 400.0 mg/kg/injection, schedule: Q01DX009 (ip), vehicle: other 104 % of control

CSC(/C=C/c1ccccc1)=Nc1ccccc1
inactive: [9] 99 % of control | dose: 200.0 mg/kg/injection, schedule: Q01DX001 (ip), vehicle: saline with Tween-80 99 % of control | dose: 400.0 mg/kg/injection, schedule: Q01DX001 (ip), vehicle: saline with Tween-80 101 % of control

CC1([P+](C)(C)C)C2C=CC1CC2 (centres undefined)
inactive: dose: 25.0 mg/kg/injection, schedule: Q01DX001 (ip), vehicle: saline 100 % of control | dose: 50.0 mg/kg/injection, schedule: Q01DX001 (ip), vehicle: saline 103 % of control | [9] 105 % of control | dose: 100.0 mg/kg/injection, schedule: Q01DX001 (ip), vehicle: saline 100 % of control

CC(=O)OC(CCl)C1OC(CCl)C(OC(C)=O)O1 (centres undefined)
inactive: [3] 103 % of control | [6] 103 % of control | [4] 102 % of control

O=c1ccc2nccc3c4cc(O)ccc4n1c23
inactive: dose: 1.75 mg/kg/injection, schedule: Q01DX009 (ip), vehicle: saline with Tween-80 98 % of control | dose: 7.0 mg/kg/injection, schedule: Q01DX009 (ip), vehicle: saline with Tween-80 109 % of control

Reference: PubChem BioAssay AID330 (DTP/NCI, 2004)
